Experimental data: publication PMC10458253, “Unraveling the In Vitro Toxicity Profile of Psychedelic 2C Phenethylamines and Their N-Benzylphenethylamine (NBOMe) Analogues” (Pharmaceuticals, 2023)

Assays:
[1] = system: differentiated SH-SY5Y cells; experiment: Effect of MAO inhibitors on drug cytotoxicity (neutral red uptake), differentiated SH-SY5Y; type: cell-based; conditions: 24 h; for change of drug cytotoxicity with rasagiline (neutral red uptake): 1 µM rasagiline (MAO-B inhibitor), drug concentrations as given in the source
Procedure: MAO inhibition was used to elucidate the impact of MAO-A and MAO-B in the cytotoxicity of the tested drugs. […] The drugs’ cytotoxicity was then assessed through the neutral red uptake assay and the results were expressed as percentage of control cells. At least four independent experiments were performed, in triplicate.

[2] = system: differentiated SH-SY5Y cells; experiment: Effect of CYP inhibitors on drug cytotoxicity (neutral red uptake), differentiated SH-SY5Y; type: cell-based; conditions: 24 h, drug concentrations as given in the source; for change of neutral red uptake with quinidine vs drug alone: 10 μM quinidine (CYP2D6 inhibitor); for change of neutral red uptake with ABT vs drug alone: 1000 μM ABT (non-selective CYP inhibitor); for change of neutral red uptake with ketoconazole vs drug alone: 10 μM ketoconazole (CYP3A4 inhibitor)
Procedure: Differentiated SH-SY5Y cells were incubated with the drugs in the presence or absence of different CYP inhibitors: 1000 μM ABT, a non-selective CYP inhibitor, 10 μM quinidine, a specific CYP2D6 inhibitor, or 10 μM ketoconazole, a specific CYP3A4 inhibitor.
CYP inhibition assay was used to evaluate the drugs’ potential to inhibit drug-metabolizing enzymes. Accordingly, SH-SY5Y and HepG2 cells were seeded in 96-well cell culture plates and pre-incubated with 1000 µM ABT—a non-isoform specific CYP450 inhibitor, 10 µM quinidine—a CYP2D6 inhibitor or 1 µM ketoconazole—a CYP3A4 inhibitor. After 1 h, the drugs (0–500 µM) were co-incubated with the inhibitors for 24 h, at 37 °C, in a 5% CO2–95% air atmosphere. The drugs’ cytotoxicity was then assessed through the neutral red uptake assay for differentiated SH-SY5Y cells, and through the resazurin reduction assay for HepG2 cells, and the results were expressed as percentage of control cells. At least four independent experiments were performed, in triplicate.

HepG2 cells = experiment: Neutral red uptake cytotoxicity assay, HepG2; type: cell-based; conditions: HepG2, 24 h; for Top (maximal effect): maximum cell death of fitted curve; for EC50: Homo sapiens, cell death curves 0–2000 µM, read-out: EC50 (half-maximum-effect concentrations)
Procedure: HepG2 cells were acquired from the American Type Culture Collection (Manassas, VA, USA). Cells were cultured in 75 cm^2 flasks using DMEM—high glucose supplemented with a 10% heat inactivated FBS and 1% penicillin/streptomycin mixture, and maintained in a 5% CO2–95% air atmosphere, at 37 °C, until 80% confluence. Cells were routinely subcultured using trypsin-EDTA and, to avoid phenotypic alterations, used between passages 16 and 22. In all experiments, the cells were seeded at a density of 250,000 cells/cm^2 and used 24 h after seeding.
(§1) Neutral red uptake and resazurin reduction assays were performed after exposure of differentiated SH-SY5Y and HepG2 cells to the drugs under study. To obtain a concentration–response curve, a broad concentration range (0–2000 µM) was investigated, and cytotoxicity was evaluated 24 h after exposure in 96-well cell culture plates. As previously described, neutral red uptake assay is based on the incorporation of neutral red dye into the lysosomes of viable cells and the amount of dye incorporated represents the cells’ lysosomal functionality, and resazurin reduction assay is based on the irreversible reduction of resazurin dye to the fluorescent resorufin product by metabolically active cells.
(§2) Briefly, 24 h after being exposed to different concentrations of the compounds, differentiated SH-SY5Y cells were incubated with either neutral red (50 µg/mL) or resazurin (10 µg/mL) solutions for 90 min, at 37 °C, in a 5% CO2–95% air atmosphere. For HepG2 cells, 24 h after the exposure to the tested drugs, the cells were incubated with either neutral red (50 µg/mL) or resazurin (10 µg/mL) solutions for 45 and 60 min, respectively, at 37 °C, in a 5% CO2–95% air atmosphere.
(§3) In the neutral red uptake assay, at the end of the incubation period, the cell culture medium was removed and a solution of absolute ethyl alcohol/distilled water (1:1) with 5% acetic acid was added to extract the dye absorbed only by the viable cells. The absorbance was measured at 540 nm in a multi-well plate reader (PowerWaveX BioTek Instruments, Winooski, VT, USA). In the resazurin assay, at the end of the incubation period, the fluorescence was measured at 530 nm excitation and 590 nm emission wavelengths in a multi-well plate reader (PowerWaveX BioTek Instruments, Winooski, VT, USA).
(§4) The results were expressed as a percentage of control cells. At least four independent experiments were performed, in triplicate. For differentiated SH-SY5Y cells, the neutral red uptake assay was identified as the most sensitive assay and, therefore, used for the subsequent experiments. On the other hand, for HepG2 cells, the resazurin reduction assay was identified as the most sensitive assay and, therefore, used for the subsequent experiments.

[3] = system: differentiated SH-SY5Y cells; experiment: Neutral red uptake cytotoxicity assay, differentiated SH-SY5Y; type: cell-based; conditions: 24 h; for Top (maximal effect): maximum cell death of fitted curve; for EC50: Homo sapiens, cell death curves 0–1500 µM, read-out: EC50 (half-maximum-effect concentration)
Procedure: (§5) SH-SY5Y cells were acquired from the American Type Culture Collection (Manassas, VA, USA). Cells were cultured in 25 cm^2 flasks using DMEM—high glucose supplemented with 10% heat-inactivated FBS, 1% MEM non-essential amino acids and 1% penicillin/streptomycin mixture, and maintained in a 5% CO2–95% air atmosphere, at 37 °C, until 80% confluence. Cells were routinely subcultured using trypsin-EDTA and, to avoid phenotypic alterations, were always used between passages 23 and 29. In all experiments, the cells were seeded at a density of 25,000 cells/cm^2. As previously described, to achieve a dopaminergic neuronal phenotype, the cells were seeded in a complete DMEM medium containing 10 μM retinoic acid and, after 3 days, 80 nM TPA was added to the cultures for another 3 days.
as §1, §2, §3, §4

[4] = CHI on Immobilized Artificial Membrane (IAM) HPLC, Kpcell; type: physicochemical; conditions: partition between internal and external cellular media; estimated from experimental CHI(IAM)
Procedure: The CHI on IAM (CHI (IAM)) values were determined from the experimental tR obtained on the HPLC system with an IAM.PC.DD2 column (100 × 4.6 mm, 10 µm, Regis Technologies, Inc., Morton Grove, IL, USA). […] The Log Kpcell (partition between internal and external cellular media) values were estimated from the drugs’ experimental CHI IAM values using Equations (2) and (3) described elsewhere. Log kIAM = 0.046 CHI(IAM) + 0.42(2) Log Kpcell = 1.1 Log kIAM(3)

[5] = system: differentiated SH-SY5Y cells; experiment: Resazurin reduction cytotoxicity assay, differentiated SH-SY5Y; type: cell-based; conditions: 24 h; for Top (maximal effect): maximum cell death of fitted curve; for EC50: Homo sapiens, cell death curves 0–1500 µM, read-out: EC50 (half-maximum-effect concentration)
Procedure: as §5, §1, §2, §3, §4

[6] = Chromatographic Hydrophobicity Index (CHI) by HPLC, CHILogD7.4; conditions: pH 7.4
Procedure: The CHI values at pH 7.4 were determined using an experimental protocol described elsewhere [23, 25]. The CHI values were assessed from experimental retention times (tR) of the compounds under study and a mixture of reference compounds obtained on the HPLC system with a Luna C18 (2) column (150 × 4.6 mm, 5 µm, Phenomenex, CA, USA). […] Mobile phase A was 10 mM ammonium acetate (pH 7.4) and mobile phase B was acetonitrile. The following gradient program was applied: 0–7 min 0–100% B, 7–15 min 100% B, 15–17 min 100–0% B. The flow was 1 mL/min, and the injection volume was 40 μL.

[7] = PAMPA-BBB permeability assay
Excerpt: In the present study we used a Parallel Artificial Membrane Permeation Assay (PAMPA) with a membrane mimicking the BBB phospholipidic composition (PAMPA-BBB) to evaluate and predict passive, transcellular permeability of the mescaline-NBOMe, 25B-NBOMe and 25N-NBOMe drugs.
The PiON inc database software was used for data analysis.

[8] = 1 µM clorgyline (MAO-A inhibitor), drug 50-250 µM

Structure (SMILES) | change of drug cytotoxicity with rasagiline (neutral red uptake) [1] | change of neutral red uptake with quinidine vs drug alone [2] | change of neutral red uptake with ABT vs drug alone [2] | Bottom (baseline) (HepG2 cells) | Hill Slope (HepG2 cells) | Top (maximal effect) (HepG2 cells) | EC50 (HepG2 cells) | Bottom (baseline) [3] | Hill Slope [3] | Top (maximal effect) [3] | EC50 [3] | Kpcell [4] | Bottom (baseline) [5] | Hill Slope [5] | Top (maximal effect) [5] | EC50 [5] | chromatographic logD [6] | change of drug cytotoxicity with clorgyline (neutral red uptake) [1, 8] | change of neutral red uptake with ketoconazole vs drug alone [2] | −Log Pe ± SD [7] | other results
COc1cc([N+](=O)[O-])c(OC)cc1CCN [2C-N, 2,5-dimethoxy-4-nitrophenethylamine] | significantly increased the cytotoxicity | significant decrease in the neutral red uptake | significant increase in neutral red uptake | 7.328 | 4.340 | ≈100 | 960 µM | 6.911 | 2.691 | ≈100 | 733 µM | 0.94 | 4.440 | 1.627 | ≈100 | 832 µM | 0.37 |  |  |  | 
COc1ccccc1CNCCc1cc(OC)c(OC)c(OC)c1 [Mescaline-NBOMe, 3,4,5-Trimethoxy-N-(2-methoxybenzyl)-β-phenethylamine] | significantly increased the cytotoxicity | significant decrease in the neutral red uptake | significant decrease in neutral red uptake | 2.853 | 3.666 | 98.25 | 476 µM | 1.218 | 2.681 | 98.57 | 406 µM | 2.71 | 2.774 | 2.524 | 94.72 | 677 µM | 1.34 | significantly increased the cytotoxicity | small but significant decrease in neutral red uptake | 4.7 ± 0.49 | change of drug cytotoxicity with clorgyline (neutral red uptake) ([1]; 1 µM clorgyline, 500 µM drug concentration): significant increase in cell viability
COc1cc(CCN)cc(OC)c1OC.Cl [Mescaline, 3,4,5-Trimethoxyphenethylamine hydrochloride] |  | significant decrease in the neutral red uptake |  |  |  |  |  |  |  |  |  |  |  |  |  |  |  | significantly increased the cytotoxicity | small but significant decrease in neutral red uptake |  | cytotoxicity (in words) (HepG2 cells; 0–2000 µM): not causing a significant cytotoxicity; cytotoxic effect (in words) ([5]; 0–1500 µM): no significant cytotoxic effects
COc1cc(CCNCc2ccccc2OC)c(OC)cc1Br [25B-NBOMe, 4-Bromo-2,5-dimethoxy-N-(2-methoxybenzyl)-β-phenethylamine] | significant increase in cell viability | significant decrease in the neutral red uptake |  | 4.279 | 2.442 | ≈100 | 34.7 µM | 0.0825 | 2.687 | 87.85 | 33.9 µM | 9.08 | 6.827 | 4.464 | 80.62 | 58.4 µM | 2.32 |  |  | 4.4 ± 0.36 | 
COc1cc(CCN)c(OC)cc1Br [2C-B, 4-Bromo-2,5-dimethoxy-β-phenethylamine] | significantly increased the cytotoxicity | significant decrease in the neutral red uptake |  | 5.433 | 5.413 | 95.01 | 257 µM | 1.900 | 1.746 | 93.68 | 165 µM | 3.08 | 7.210 | 1.670 | 83.95 | 225 µM | 0.7 |  | small but significant decrease in neutral red uptake |  | 
COc1cc([N+](=O)[O-])c(OC)cc1CCNCc1ccccc1OC [25N-NBOMe, 4-Nitro-2-dimethoxy-N-(2-methoxybenzyl)-β-phenethylamine] | significant increase in cell viability | significant decrease in the neutral red uptake | significant decrease in neutral red uptake | 7.254 | 6.518 | 94.13 | 115 µM | 2.841 | 5.758 | 87.38 | 125 µM | 5.05 | 0.9223 | 4.692 | 80.10 | 154 µM | 1.96 | significantly increased the cytotoxicity | small but significant decrease in neutral red uptake | 4.6 ± 0.34 | 
